In patent publication US20020137929A1, “1 - (3-heterocyclylphenyl) isothiourea, -isourea, -guanidine and -amidine herbicidal agents” (Intellectual Property Department, BASF Aktiengesellschaft, priority 1998, published 2002):

Tests used:
[1] = tested on: ABUTH (Velvetleaf); assay: Preemergence herbicidal evaluation; type: in vivo, Abutilon theophrasti; conditions: rated 4-5 weeks after treatment
Method in brief: (§1)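 Herbicidal effect scored visually, 0-9, at 4 to 5 weeks against a control; compound applied preemergence by aqueous acetone spray to seeded soil at about 0.0156 to 0.500 kg/ha.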

[2] = tested on: TRZAWR (Wheat, Winter, cv Riband); assay: Preemergence herbicidal evaluation; type: in vivo, Triticum aestivum; conditions: rated 4-5 weeks after treatment
Method in brief: as §1

[3] = tested on: MOOVA (Monochoria); assay: Postemergence weed control under flooded paddy conditions; type: in vivo, Monochoria vaginalis; conditions: postemergence weeds, 3-4 weeks after treatment
Method in brief: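 Flood-water application, about 0.0313–0.500 kg/ha a.i. in aqueous/acetone 50/50 v/v; water depth 1.5–3 cm throughout. Weeds 3–5 cm, rice 1.5–2.5 leaf. Greenhouse; 0–9 visual rating vs control at 3–4 wk.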

[4] = tested on: CYPIR (Rice Flatsedge); assay: Preemergence weed control under flooded paddy conditions; type: in vivo, Cyperus iria; conditions: rated 3-4 weeks after treatment
Method in brief: (§2)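 First, seeds or propagules go into the top 0.5 cm of silt loam; next, water is held 1.5 to 3 cm over the soil; then compound (50/50 acetone/water) is pipetted into it at about 0.0313 to 0.500 kg/ha; finally plants are rated visually 0-9 after three to four weeks.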

[5] = tested on: ECHORC (Watergrass (Calif.)); assay: as above; type: in vivo, Echinochloa oryzoides; conditions: rated 3-4 weeks after treatment
Method in brief: as §2

[6] = tested on: SAGPY (Arrowhead (Pygmaea)); assay: as above; type: in vivo, Sagittaria pygmaea; conditions: rated 3-4 weeks after treatment
Method in brief: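 Ratings on a 0-9 visual scale cover stand, vigor, malformation, size, chlorosis and overall appearance relative to a control, taken three to four weeks post-treatment. Application was into flood water over freshly sown silt loam at roughly 0.0313 to 0.500 kg/ha.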

Row | SMILES | Preemergence herbicidal rating ABUTH ([1]; rate 0.0156 kg/ha) | Preemergence herbicidal rating ABUTH ([1]; rate 0.1250 kg/ha) | Preemergence herbicidal rating ABUTH ([1]; rate 0.2500 kg/ha) | Preemergence herbicidal rating TRZAWR ([2]; rate 0.1250 kg/ha) | Preemergence herbicidal rating TRZAWR ([2]; rate 0.2500 kg/ha) | Herbicidal rating MOOVA ([3]; rate 0.0313 kg/ha) | Herbicidal rating MOOVA ([3]; rate 0.1250 kg/ha) | Herbicidal rating MOOVA ([3]; rate 0.2500 kg/ha) | Herbicidal rating CYPIR ([4]; 0.0313 kg/ha) | Herbicidal rating CYPIR ([4]; 0.0625 kg/ha) | Herbicidal rating CYPIR ([4]; 0.1250 kg/ha) | Herbicidal rating CYPIR ([4]; 0.2500 kg/ha) | Herbicidal rating ECHORC ([5]; 0.0313 kg/ha) | Herbicidal rating ECHORC ([5]; 0.0625 kg/ha) | Herbicidal rating ECHORC ([5]; 0.1250 kg/ha) | Herbicidal rating ECHORC ([5]; 0.2500 kg/ha) | Herbicidal rating SAGPY ([6]; 0.0313 kg/ha) | Herbicidal rating SAGPY ([6]; 0.0625 kg/ha) | Herbicidal rating SAGPY ([6]; 0.1250 kg/ha) | Herbicidal rating SAGPY ([6]; 0.2500 kg/ha) | further results
1 | Cn1c(C(F)(F)F)cc(=O)n(-c2cc(N=C3SCC(=O)N3CC(=O)OC(C)(C)C)c(Cl)cc2F)c1=O [Compound 43, tert-Butyl 2-{{2-chloro-5-[3,6-dihydro-3-methyl-2,6-dioxo-4-(trifluoromethyl)-1(2H)-pyrimidinyl]-4-fluorophenyl}imino}-4-oxo-3-thiazolidineacetate] | 9.0 | 9.0 | 9.0 | 1.0 | 4.0 | 9.0 | 9.0 | 9.0 | 0.0 | 2.0 | 4.0 | 5.0 | 5.0 | 6.0 | 7.0 | 9.0 | 7.0 | 7.0 | 7.0 | 9.0 | Preemergence herbicidal rating ABUTH ([1]; rate 0.0313 kg/ha): 9.0; Preemergence herbicidal rating ABUTH ([1]; rate 0.0625 kg/ha): 9.0; Preemergence herbicidal rating TRZAWR ([2]; rate 0.0156 kg/ha): 0.0; Preemergence herbicidal rating TRZAWR ([2]; rate 0.0313 kg/ha): 0.0; Preemergence herbicidal rating TRZAWR ([2]; rate 0.0625 kg/ha): 0.0; Herbicidal rating MOOVA ([3]; rate 0.0825 kg/ha): 9.0
2 | CCOC(=O)CN1C(=O)CS(=O)(=O)C1=Nc1cc(-n2c(=O)cc(C(F)(F)F)n(C)c2=O)c(F)cc1Cl [Compound 46, 2-{{2-Chloro-5-[3,6-dihydro-3-methyl-2,6-dioxo-4-(trifluoromethyl)-1(2H)-pyrimidinyl]-4-fluoro-phenyl}imino}-4-oxo-3-thiazolidineacetic acid, ethyl ester, 1,1-dioxide] |  | 9.0 | 9.0 | 0.0 | 0.0 | 3.0 | 6.0 | 7.0 | 0.0 | 0.0 | 0.0 | 0.0 | 0.0 | 0.0 | 0.0 | 4.0 | 0.0 | 0.0 | 0.0 | 3.0 | Herbicidal rating MOOVA ([3]; rate 0.0625 kg/ha): 4.0
3 | CCOC(=O)CN1C(=O)C(CCO)S/C1=N/c1cc(-n2c(=O)cc(C(F)(F)F)n(C)c2=O)c(F)cc1Cl (stereo not drawn) [Compound 49, Ethyl 2-{{2-chloro-5-[3,6-dihydro-3-methyl-2,6-dioxo-4-(trifluoromethyl)-1(2H)-pyrimidinyl]-4-fluorophenyl}imino}-5-(hydroxyethyl)-4-oxo-3-thiazolidineacetate] | 9.0 | 9.0 | 9.0 | 0.0 | 2.0 | 9.0 | 9.0 | 9.0 | 0.0 | 0.0 | 2.0 | 7.0 | 0.0 | 2.0 | 5.0 | 7.0 | 2.0 | 4.0 | 6.0 | 7.0 | Preemergence herbicidal rating ABUTH ([1]; rate 0.0313 kg/ha): 9.0; Preemergence herbicidal rating ABUTH ([1]; rate 0.0625 kg/ha): 9.0; Preemergence herbicidal rating TRZAWR ([2]; rate 0.0156 kg/ha): 0.0; Preemergence herbicidal rating TRZAWR ([2]; rate 0.0313 kg/ha): 0.0; Preemergence herbicidal rating TRZAWR ([2]; rate 0.0625 kg/ha): 0.0; Herbicidal rating MOOVA ([3]; rate 0.0625 kg/ha): 9.0
